Where “and” joins values, the source holds several entries; their conditions need not be identical. Equal values may be shown once. Inconclusive results and toxic doses are left out.
Test system: P388 leukemia ip, CD2F1 mice, survival T/C
Experiment: NCI In Vivo Anticancer Drug Screen. Data for tumor model P388 Leukemia (intraperitoneal) in CD2F1 (CDF1) mice
Details: endpoint: median survival time, higher = longer survival
How it was run: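 Mice carrying the transplanted tumor received test compound or vehicle. Survival was recorded in each group, and the value is the treated-group measurement divided by that of the vehicle-treated control group.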

[1] = dose: 100.0 mg/kg/injection, schedule: Q04DX003 (ip), vehicle: saline
[2] = dose: 200.0 mg/kg/injection, schedule: Q04DX003 (ip), vehicle: saline
[3] = dose: 50.0 mg/kg/injection, schedule: Q01DX005 (ip), vehicle: Klucel (hydroxypropylcellulose) (HPC)
[4] = dose: 100.0 mg/kg/injection, schedule: Q01DX005 (ip), vehicle: Klucel (hydroxypropylcellulose) (HPC)
[5] = dose: 200.0 mg/kg/injection, schedule: Q01DX005 (ip), vehicle: Klucel (hydroxypropylcellulose) (HPC)
[6] = dose: 100.0 mg/kg/injection, schedule: Q04DX003 (ip), vehicle: saline with Tween-80
[7] = dose: 200.0 mg/kg/injection, schedule: Q04DX003 (ip), vehicle: saline with Tween-80
[8] = dose: 50.0 mg/kg/injection, schedule: Q01DX005 (ip), vehicle: saline with Tween-80
[9] = dose: 100.0 mg/kg/injection, schedule: Q01DX005 (ip), vehicle: saline with Tween-80
[10] = dose: 200.0 mg/kg/injection, schedule: Q01DX005 (ip), vehicle: saline with Tween-80

Cc1ccc2c(c1)C(=O)C(CN1CCCCC1)CO2 (configuration not stated) was tested, and the T/C [1] was 108 % of control and the T/C [2] was 108 % of control.

For CN(O)/C=C1\C(=O)C=Cc2ccccc21, the T/C [3] was 90 % of control, the T/C [4] was 94 % of control and the T/C [5] was 90 % of control.

In the case of C[N+](C)(Cc1ccccc1)[N-]C(=N)c1ccccc1, the T/C (dose: 12.5 mg/kg/injection, schedule: Q04DX003 (ip), vehicle: Klucel (hydroxypropylcellulose) (HPC)) is reported as 105 % of control, the T/C (dose: 25.0 mg/kg/injection, schedule: Q04DX003 (ip), vehicle: Klucel (hydroxypropylcellulose) (HPC)) is reported as 101 % of control and the T/C (dose: 50.0 mg/kg/injection, schedule: Q04DX003 (ip), vehicle: Klucel (hydroxypropylcellulose) (HPC)) is reported as 100 % of control. For the same compound, the T/C (dose: 100.0 mg/kg/injection, schedule: Q04DX003 (ip), vehicle: Klucel (hydroxypropylcellulose) (HPC)) was 103 % of control.

[CH3][Sn]([CH3])([Cl])[CH2]CC[CH2][Ge]([Cl])([Cl])[Cl] was tested, and the T/C (dose: 0.78 mg/kg/injection, schedule: Q01DX009 (ip), vehicle: saline) was 114 % of control and the T/C (dose: 1.56 mg/kg/injection, schedule: Q01DX009 (ip), vehicle: saline) was 119 % of control.

In the case of CC(O)C(=O)N1Cc2cc3ccccc3nc2C1 (configuration not stated), the T/C (dose: 4.0 mg/kg/injection, schedule: Q01DX009 (ip), vehicle: saline with Tween-80) is reported as 94 % of control, the T/C (dose: 8.0 mg/kg/injection, schedule: Q01DX009 (ip), vehicle: saline with Tween-80) is reported as 89 % of control and the T/C (dose: 16.0 mg/kg/injection, schedule: Q01DX009 (ip), vehicle: saline with Tween-80) is reported as 92 % of control. The T/C (dose: 32.0 mg/kg/injection, schedule: Q01DX009 (ip), vehicle: saline with Tween-80) was 90 % of control and the T/C (dose: 64.0 mg/kg/injection, schedule: Q01DX009 (ip), vehicle: saline with Tween-80) was 91 % of control.

With c1cc2cc(C3=NCCN3)[nH]c2cc1C1=NCCN1 the T/C (dose: 12.5 mg/kg/injection, schedule: Q01DX005 (ip), vehicle: saline) was 98 % of control, the T/C (dose: 25.0 mg/kg/injection, schedule: Q01DX005 (ip), vehicle: saline) was 103 % of control and the T/C (dose: 50.0 mg/kg/injection, schedule: Q01DX005 (ip), vehicle: saline) was 99 % of control.

With CN(CC(O)C(O)C(O)C(O)CN(C)N=O)N=O (configuration not stated) the T/C (dose: 100.0 mg/kg/injection, schedule: Q01DX001 (ip), vehicle: saline) was 115 % of control, the T/C (dose: 200.0 mg/kg/injection, schedule: Q01DX001 (ip), vehicle: saline) was 100 % of control and the T/C (dose: 400.0 mg/kg/injection, schedule: Q01DX001 (ip), vehicle: saline) was 110 % of control.

With c1ccc(C2SC(c3ccccc3)SC(c3ccccc3)S2)cc1 (configuration not stated) the T/C (dose: 50.0 mg/kg/injection, schedule: Q01DX009 (ip), vehicle: Klucel (hydroxypropylcellulose) (HPC)) was 109 % of control, the T/C (dose: 100.0 mg/kg/injection, schedule: Q01DX009 (ip), vehicle: Klucel (hydroxypropylcellulose) (HPC)) was 107 % of control and the T/C (dose: 200.0 mg/kg/injection, schedule: Q01DX009 (ip), vehicle: Klucel (hydroxypropylcellulose) (HPC)) was 108 % of control. The T/C (dose: 400.0 mg/kg/injection, schedule: Q01DX009 (ip), vehicle: Klucel (hydroxypropylcellulose) (HPC)) was 106 % of control.

For CCCC(=O)C(=O)c1ccc(O)c(C)c1O, the T/C (dose: 50.0 mg/kg/injection, schedule: Q01DX009 (ip), vehicle: saline with Tween-80) was 101 % of control, the T/C (dose: 100.0 mg/kg/injection, schedule: Q01DX009 (ip), vehicle: saline with Tween-80) was 99 % of control and the T/C (dose: 200.0 mg/kg/injection, schedule: Q01DX009 (ip), vehicle: saline with Tween-80) was 102 % of control.

CCOc1ccc(Cc2nc3c([nH]2)c(=O)n(C)c(=O)n3C)cc1OCC was tested, and the T/C (dose: 50.0 mg/kg/injection, schedule: Q04DX003 (ip), vehicle: saline with Tween-80) was 104 % of control, the T/C [6] was 103 % of control and the T/C [7] was 113 % of control and 95 % of control.

CC1N(C)c2cc3[nH]c(=O)cc(C(F)(F)F)c3cc2C1(C)C (configuration not stated) was tested, and the T/C (dose: 100.0 mg/kg/injection, schedule: Q01DX001 (ip), vehicle: Klucel (hydroxypropylcellulose) (HPC)) was 92 % of control and 96 % of control, the T/C (dose: 200.0 mg/kg/injection, schedule: Q01DX001 (ip), vehicle: Klucel (hydroxypropylcellulose) (HPC)) was 103 % of control and 94 % of control and the T/C (dose: 400.0 mg/kg/injection, schedule: Q01DX001 (ip), vehicle: Klucel (hydroxypropylcellulose) (HPC)) was 121 % of control.

CC(C)(Nc1ccccc1)C(=O)OC(C)(C)C(=O)Nc1ccccc1 was tested, and the T/C [8] was 90 % of control, the T/C [9] was 91 % of control and the T/C [10] was 91 % of control.

For Cc1c2cc[n+](C)c(C)c2cc2c1[nH]c1ccc(O)cc12, the T/C (dose: 10.0 mg/kg/injection, schedule: Q04DX002 (ip), vehicle: water) was 157 % of control, the T/C (dose: 20.0 mg/kg/injection, schedule: Q04DX002 (ip), vehicle: water) was 162 % of control and the T/C (dose: 40.0 mg/kg/injection, schedule: Q04DX002 (ip), vehicle: water) was 89 % of control. For the same compound, the T/C (dose: 50.0 mg/kg/injection, schedule: Q04DX002 (ip), vehicle: water) was 88 % of control.

For NNC(=O)CCc1c[nH]c2ccccc12, the T/C (dose: 50.0 mg/kg/injection, schedule: Q01DX001 (ip), vehicle: saline with Tween-80) was 100 % of control, the T/C (dose: 100.0 mg/kg/injection, schedule: Q01DX001 (ip), vehicle: saline with Tween-80) was 96 % of control and the T/C (dose: 200.0 mg/kg/injection, schedule: Q01DX001 (ip), vehicle: saline with Tween-80) was 111 % of control. The T/C (dose: 400.0 mg/kg/injection, schedule: Q01DX001 (ip), vehicle: saline with Tween-80) was 111 % of control.

With CC(=O)Oc1ccc2ccccc2c1-c1ccccn1 the T/C (dose: 12.5 mg/kg/injection, schedule: Q01DX001 (ip), vehicle: saline + alcohol) was 101 % of control, the T/C (dose: 25.0 mg/kg/injection, schedule: Q01DX001 (ip), vehicle: saline + alcohol) was 99 % of control and the T/C (dose: 50.0 mg/kg/injection, schedule: Q01DX001 (ip), vehicle: saline + alcohol) was 100 % of control.

In the case of COc1ccc2[nH]c(=O)c(COC(C)=O)c(COC(C)=O)c2c1, the T/C [3] is reported as 87 % of control, the T/C [4] is reported as 87 % of control and the T/C [5] is reported as 97 % of control.

In the case of CCN(CC)SC(=S)SN(CC)CC, the T/C (dose: 50.0 mg/kg/injection, schedule: Q04DX003 (ip), vehicle: saline) is reported as 98 % of control, the T/C [1] is reported as 96 % of control and the T/C [2] is reported as 98 % of control. The T/C (dose: 400.0 mg/kg/injection, schedule: Q04DX003 (ip), vehicle: saline) was 104 % of control.

For O=[N+]([O-])c1ccc(S(=O)(=O)C/C=C/CCl)c([N+](=O)[O-])c1, the T/C (dose: 12.5 mg/kg/injection, schedule: Q01DX009 (ip), vehicle: saline with Tween-80) was 113 % of control and the T/C (dose: 25.0 mg/kg/injection, schedule: Q01DX009 (ip), vehicle: saline with Tween-80) was 90 % of control.

For Cc1ccc(Cl)cc1NS(=O)(=O)c1ccc(Br)cc1, the T/C [6] was 100 % of control, the T/C [7] was 100 % of control and the T/C (dose: 400.0 mg/kg/injection, schedule: Q04DX003 (ip), vehicle: saline with Tween-80) was 104 % of control.

For Cc1ccc(S(=O)(=O)NC(=O)Nn2c(C)nc3ccccc3c2=O)cc1, the T/C [3] was 103 % of control, the T/C [4] was 102 % of control and the T/C [5] was 106 % of control.

In the case of O=C1CN(c2cccc(C(F)(F)F)c2)C(=O)CN1/N=C/c1cccnc1, the T/C [8] is reported as 94 % of control, the T/C [9] is reported as 97 % of control and the T/C [10] is reported as 94 % of control.

For CCOC(=O)CCC1=C(C)c2cc3[nH]c(cc4[nH]c(cc5nc(cc1n2)C(CCC(=O)OCC)=C5C)c(C1CC1C(=O)OCC)c4C)c(C1CC1C(=O)OCC)c3C (configuration not stated), the T/C [3] was 102 % of control, the T/C [4] was 100 % of control and the T/C [5] was 101 % of control.

In the case of COc1c2c(c(OC)c3c1C(=O)c1ccccc1C3O)CC=CC2 (configuration not stated), the T/C (dose: 25.0 mg/kg/injection, schedule: Q01DX009 (ip), vehicle: other) is reported as 94 % of control, the T/C (dose: 50.0 mg/kg/injection, schedule: Q01DX009 (ip), vehicle: other) is reported as 91 % of control and the T/C (dose: 100.0 mg/kg/injection, schedule: Q01DX009 (ip), vehicle: other) is reported as 91 % of control. For the same compound, the T/C (dose: 200.0 mg/kg/injection, schedule: Q01DX009 (ip), vehicle: other) was 95 % of control and the T/C (dose: 400.0 mg/kg/injection, schedule: Q01DX009 (ip), vehicle: other) was 100 % of control.

With COc1ccc2c(c1)CN(C)CO2 the T/C [8] was 103 % of control, the T/C [9] was 102 % of control and the T/C [10] was 107 % of control.

In the case of O=S(=O)(O)SCCNCCc1ccccn1, the T/C (dose: 12.5 mg/kg/injection, schedule: Q01DX005 (ip), vehicle: water) is reported as 104 % of control, the T/C (dose: 25.0 mg/kg/injection, schedule: Q01DX005 (ip), vehicle: water) is reported as 109 % of control and the T/C (dose: 50.0 mg/kg/injection, schedule: Q01DX005 (ip), vehicle: water) is reported as 109 % of control. For the same compound, the T/C (dose: 100.0 mg/kg/injection, schedule: Q01DX005 (ip), vehicle: water) was 107 % of control.

From PubChem BioAssay AID330 (DTP/NCI, 2004)
